Reference: US20230372227A1, “PRESERVATIVE COMPRISING POLYLYSINE AND CAPRYLYL GLYCERYL ETHER FOR EXTERNAL-USE SKIN FORMULATIONS AND COSMETICS COMPOSITION COMPRISING SAME” (ACTIVON CO., LTD., priority 2020, published 2023)

How the values were obtained:
Assay in all cases: Minimum inhibitory concentration (MIC) of preservatives
Type in all cases: cell-based
[1] = tested on: Escherichia coli (ATCC 8739); settings: Experimental Example 1; growth inhibited by about 95% or more; about 10^6 CFU/ml; about 32° C., 24 to 48 hours
Description: (§1) In this experimental example, in order to evaluate the antimicrobial effect of the preservatives for skin external preparations, prepared in Examples 1 to 5, the minimum inhibitory concentrations (MICs) of the preservative of each Example against bacteria or fungi, including Escherichia coli (ATCC 8739), Pseudomonas aeruginosa (ATCC 9027), Staphylococcus aureus (ATCC 6538), Candida albicans (ATCC 10231), and Aspergillus brasiliensis (ATCC 16404), were measured.
(§2) Specifically, each of the preservatives for skin external preparations, prepared in Examples 1 to 5, was diluted to about 13% to about 25%, and each of the dilutions was further serially diluted 1:1 (10 times). Thereby, samples of various concentrations (about 0.05% to about 10%) for each of the preservatives for skin external preparations, prepared in Examples 1 to 5, were prepared. Each of the obtained samples was added to tryptic soy broth (TSB) medium or potato dextrose agar (PDA) medium. In about 10 ml of the medium to which each sample was added, each type of bacteria or fungi described above was seeded so that the final concentration of the bacteria or fungi was about 10^6 CFU/ml, and then the bacteria were cultured at about 32° C. for about 24 hours to 48 hours, and fungi were cultured at about 25° C. for about 24 hours to 48 hours. Thereafter, the minimum inhibitory concentration (MIC) of each sample capable of inhibiting the growth of the bacteria or fungi by about 95% or more was determined by observing the state of the bacterial or fungal culture medium. The growth of normal bacteria in a medium to which no sample was added was measured and used as a positive control, and the MIC for the growth of bacteria or fungi in a medium to which polyepsilon-lysine, caprylyl glyceryl ether, or propylene glycol was added alone was measured and used as a control.
(§3) In this experimental example, in order to evaluate the antimicrobial effect of a preservative for a skin external application comprising polylysine, caprylyl glyceryl ether and a glycol compound at a weight ratio of 0.1 to 5:10 to 30:65 to 75, the minimum inhibitory concentrations (MICs) of the preservative of each Example against bacteria or fungi, including Escherichia coli (ATCC 8739), Pseudomonas aeruginosa (ATCC 9027), Staphylococcus aureus (ATCC 6538), Candida albicans (ATCC 10231), and Aspergillus brasiliensis (ATCC 16404), were measured. Polyepsilon-lysine was used as the polylysine, and propylene glycol, butylene glycol, or pentylene glycol was used as the glycol compound.
(§4) Each of the preservatives for skin external preparations was diluted to about 10%, and each of the dilutions was further serially diluted 1:1 ([…]). Thereby, samples of various concentrations (about 0.01% to about 10%) for each of the preservatives for skin external preparations were prepared. Each of the obtained samples was added to tryptic soy broth (TSB) medium or potato dextrose agar (PDA) medium. In about 10 ml of the medium to which each sample was added, each type of bacteria or fungi described above was seeded so that the final concentration of the bacteria or fungi was about 10^6 CFU/ml, and then the bacteria were cultured at about 32° C. for about 24 hours to 48 hours, and fungi were cultured at about 25° C. for about 24 hours to 48 hours. […] The growth of normal bacteria in a medium to which no sample was added was measured and used as a positive control.

[2] = tested on: Staphylococcus aureus (ATCC 6538); settings: Experimental Example 1; growth inhibited by about 95% or more; about 10^6 CFU/ml; about 32° C., 24 to 48 hours
Description: as §1, §2, §3, §4

[3] = tested on: Candida albicans (ATCC 10231); settings: Experimental Example 1; growth inhibited by about 95% or more; about 10^6 CFU/ml; about 25° C., 24 to 48 hours
Description: as §1, §2, §3, §4

[4] = tested on: Pseudomonas aeruginosa (ATCC 9027); settings: Experimental Example 1; growth inhibited by about 95% or more; about 10^6 CFU/ml; about 32° C., 24 to 48 hours
Description: as §1, §2, §3, §4

[5] = tested on: Aspergillus brasiliensis (ATCC 16404); settings: Experimental Example 1; growth inhibited by about 95% or more; about 10^6 CFU/ml; about 25° C., 24 to 48 hours
Description: as §1, §2, §3, §4

MIC (%, w/w) of sample E. coli [1]: >10 %, w/w
MIC (%, w/w) of sample S. aureus [2]: >10 %, w/w
MIC (%, w/w) of sample C. albicans [3]: >10 %, w/w
MIC (%, w/w) of sample P. aeruginosa [4]: >10 %, w/w
MIC (%, w/w) of sample A. brasiliensis [5]: >10 %, w/w
Compound: CC(O)CO (centres unmarked) [Propylene glycol]
